# Tests used:
# [1] = tested on: Corynebacterium glutamicum ATCC 13032; assay: Growth inhibitory effect of furfural in wild type strain; type: cell-based
# Procedure: In order to develop a furfural-resistant strain, first of all, Corynebacterium glutamicum is selected as a wild type, and then, growth inhibitory effect of furfural at Corynebacterium glutamicum wild type strain (wild type), which is Corynebacterium glutamicum ATCC 13032, depending on concentration, and concentrations of furfural and furfuryl alcohol in a culture solution depending on cell growth are confirmed.
# Specifically, as the culture solution, 2% glucose as a carbon source is added to a minimal medium, CGXII medium, and furfural of 6.5 mM, 13 mM and 20 mM are added thereto, respectively, to compare growth speed with the case not adding the furfural. At this time, the composition of the CGXII medium is 20 g/L (NH4)2504, 5 g/L Urea, 1 g/L KH2PO4, 1 g/L K2HPO4, 0.25 g/L MgSO4.7H2O, 42 g/L MOPS, 10 mg/L CaCl2, 0.2 mg/L Biotin, 0.03 g/L Protecatechuic acid, Trace metal (10 mg/L FeSO4.7H2O, 10 mg/L MnSO4.H2O, 1 mg/L ZnSO4.7H2O, 0.2 mg/L CuSO4.7H2O, 0.02 mg/L NiCl2.6H2O). Culture is conducted at 30° C. after inoculating the cells (initial OD600=1) into the culture solution 50 mL in a 250 mL Erlenmeyer flask.
# [2] = tested on: cg1310 (rolM, Maleylacetate reductase) mRNA; assay: Microarray gene expression depending on furfural concentration; type: cell-based, Corynebacterium glutamicum; conditions: against wild type in medium not containing furfural
# Text: As a result, among the genes, which are expected to have similarity, cg1310 (SEQ ID No.: 2) showing increased expression at microarray is selected as the target gene. And, information about the selected target gene, and expression level of the target gene depending on the furfural concentration in the medium, which is obtained by analyzing gene expression pattern thereof depending on the furfural concentration using microarray, are shown in the following Table 1.
# As a result of analysis, compared with the medium not containing the furfural, the mRNA expression level of the target gene is increased in the medium containing the furfural, and the mRNA expression level of the target gene is further increased when the furfural concentration is increased from 6.5 mM to 13 mM.
# (§1) DNA Microarray is used as a method for analyzing gene expression depending on the furfural stress.
# [3] = tested on: cg0310 (katA, catalase) mRNA; assay: as above; type: cell-based, Corynebacterium glutamicum; conditions: against wild type in medium not containing furfural
# Text: as §1
# (§2) Specifically, among genes corresponding to the module classified at http://www.coryneregnet.de/ of entire genes, and genes, whose corresponding protein names contain at least one of transport, permease and pump, genes showing increased expression level at all furfural concentrations are selected, and then, genes showing about 10 folds or more increased expression level at least one concentration are selected. And, among the selected genes, existing genes, which are known to response to stress, are excluded by literature search, and cg0310 (SEQ ID No.: 3), cg1661 (SEQ ID No.: 1), cg3374 (SEQ ID No.: 4) and cg3399 (SEQ ID No.: 5) are selected as the target gene. These are catalase, efflux pump in the cell membrane, oxidoreductase and permease-type genes. Then, information of the target genes selected by microarray, and expression levels of the target genes depending on the furfural concentration in the medium, which are obtained by analyzing gene expression pattern thereof using microarray, are shown in the following Table 2.
# (§3) The gene expression levels of the above Table 2 show the relative mRNA expression levels of the target genes of the wild type strain grown in the medium containing the furfural, against the wild type strain grown without stress in the medium not containing the furfural. As a result of analysis, compared with the medium not containing the furfural, the mRNA expression levels of each target gene are increased in the medium containing the furfural, and the mRNA expression levels of the target genes are further increased as the furfural concentration is increased.
# [4] = tested on: cg1661 (Arsenite efflux pump ACR3 or related permease) mRNA; assay: as above; type: cell-based, Corynebacterium glutamicum; conditions: against wild type in medium not containing furfural
# Text: as §1, §2, §3
# [5] = tested on: cg3374 (cye1, Putative NADH-dependent flavin oxidoreductase) mRNA; assay: as above; type: cell-based, Corynebacterium glutamicum; conditions: against wild type in medium not containing furfural
# Text: as §1, §2, §3
# [6] = tested on: cg3399 (Permease of the major facilitator superfamily) mRNA; assay: as above; type: cell-based, Corynebacterium glutamicum; conditions: against wild type in medium not containing furfural
# Text: as §1, §2, §3
# [7] = Furfural Conc. in Medium: 6.5 mM
# [8] = Furfural Conc. in Medium: 13 mM
# [9] = Furfural Conc. in Medium: 20 mM
smiles,measurement,setting,value
O=Cc1ccco1 [furfural],growth reduction compared with the medium not containing the furfural,"[1]; 6.5 mM furfural, CGXII medium with 2% glucose, 30° C.",≥ 50%
same,growth speed of the strain,"[1]; furfural 6.5, 13 and 20 mM in CGXII medium",becomes slow as the furfural concentration in the medium is increased
same,Gene Expression Level (relative mRNA) cg1310,[2]; [7],1.476
same,Gene Expression Level (relative mRNA) cg1310,[2]; [8],2.872
same,Gene Expression Level (relative mRNA) cg1310,[2]; [9],2.183
same,Gene Expression Level (relative mRNA) cg0310,[3]; [7],3.219
same,Gene Expression Level (relative mRNA) cg0310,[3]; [8],3.443
same,Gene Expression Level (relative mRNA) cg0310,[3]; [9],10.956
same,Gene Expression Level (relative mRNA) cg1661,[4]; [7],7.240
same,Gene Expression Level (relative mRNA) cg1661,[4]; [8],3.071
same,Gene Expression Level (relative mRNA) cg1661,[4]; [9],13.186
same,Gene Expression Level (relative mRNA) cg3374,[5]; [7],1.461
same,Gene Expression Level (relative mRNA) cg3374,[5]; [8],3.219
same,Gene Expression Level (relative mRNA) cg3374,[5]; [9],29.016
same,Gene Expression Level (relative mRNA) cg3399,[6]; [7],4.485
same,Gene Expression Level (relative mRNA) cg3399,[6]; [8],6.529
same,Gene Expression Level (relative mRNA) cg3399,[6]; [9],15.694

# Source: patent US20150275187A1, “FURFURAL-RESISTANT GENE AND FURFURAL-RESISTANT STRAINS COMPRISING THE SAME” (KOREA INSTITUTE OF SCIENCE AND TECHNOLOGY, priority 2014, published 2015)
